Results as given in article PMC10227015, “From a drug repositioning to a structure-based drug design approach to tackle acute lymphoblastic leukemia” (Nature Communications, 2023).
Where two headings read alike, the source gives them in different places.

Tests used:
[1] = system: CCRF-CEM cell line; test: dCK cellular assay: CCRF-CEM proliferation in the presence of dT and dC; format: cell-based, human
Procedure: The dCK cellular assay was set up to assess the ability to inhibit dCK activity in a cellular model. The model was developed with a T-cell acute lymphoblastic leukemia cell line (CCRF-CEM), because of its high dependence on the SP, thus on dCK activity. Cellular assays were performed to assess the inhibition of cell proliferation under two conditions: (i) in the presence of the compound alone to determine the nonspecific effect on cells, independent of dCK (nonspecific toxicity) and (ii) in the presence of an inhibitor of the DNP to determine the ability of compounds to inhibit dCK and decrease tumor proliferation (activity on dCK). The inhibitor of the DNP chosen for the experiments was thymidine (dT), a physiological inhibitor of ribonucleotide reductase which arrests cell proliferation in phase S. The dTTP produced via thymidine kinase from dT acts as a RNR inhibitor by an allosteric regulation of the R1 subunit. The addition of the nucleoside deoxycytidine (dC) in the medium allows the rescue of cell proliferation by passing only through the salvage pathway, mediated by dCK. dC needs to be added exogenously to mimic physiological concentrations because it is not present in the cell culture medium, on the contrary to mouse model, in which it is naturally present in the serum. Therefore, cell proliferation under these conditions (+dT +dC) is dCK dependent and it is possible to determine the IC50 of dCK inhibitors on the inhibition of cell proliferation. Results are expressed as % cell proliferation relative to the control with DMSO.
The amount of reduced dye formed by metabolically active cells was quantified by its fluorescence measured at 560 nm (excitation) and 590 nm (emission) in a microplate reader (CLARIOstar, BMG Labtech). A blank well without cells was used as a background control. Each experiment was performed at least three times (with technical triplicates) and data are presented as the mean ± SD.

[2] = system: dCK-C3S-S74E; test: Thermal shift assay (TSA); conditions: for THERMAL SHIFT ASSAY +Tm (°): mean ± SD; for ΔTm (º) (TSA): Figure 2a, mean
Description: BL21 pRIL Escherichia coli cells were transformed with dCK-plasmids (dCK-C4S-S74E (for crystallization assays) and dCK-C3S-S74E (for TSA, enzymatic and ITC assays)). […] Protein dCK-C3S-S74E used for other assays contained only three mutated cysteines. The S74E mutation mimics the phosphorylated state of this serine, which favors the open conformation of the enzyme, making it competent for nucleoside binding[45] to evaluate the binding affinity with compounds.
For binding assays (TSA, ITC and crystallography) cells were re-suspended in 50 mM TRIS, pH 8, 500 mM NaCl, 30 mM imidazole and 10% glycerol buffer and one EDTA free anti-protease tablet was added (Roche). After sonication and centrifugation (30,000 × g), the supernatant was loaded on a 5 ml HisTrap FF column (GE healthcare) pre-equilibrated with resuspension buffer. Protein was then eluted by resuspension buffer containing 500 mM imidazole. Protein eluted fractions were mixed and concentrated. Protein was further purified by size exclusion chromatography (superdex 200 16/600, GE healthcare) in 20 mM HEPES, pH 7.5, and 200 mM NaCl before concentration to 30 mg/ml and storage at −80 °C.
Thermal shift assay (TSA) experiments were performed in 384-well PCR white plates in the assay buffer containing 20 mM HEPES, pH 7.5 and 200 mM NaCl. […] Plates were centrifuged at 200 × g for 2 min at 4 °C. […] Raw fluorescence data were treated, and the melting temperatures (Tm) were calculated using CFX Manager 3.1 software (Bio-Rad). ΔTm represents the difference in Tm between the protein in the presence of compound and the protein alone (both at 2% DMSO). Each experiment was performed at least twice (with technical triplicates) and data are presented as the mean ± SD.

[3] = Homo sapiens, read-out: dCK CELLULAR ASSAY IC50 (nM), CCRF-CEM, 200 µM dT and 1 µM dC, read-out: dCK […] ASSAY IC50
[4] = Homo sapiens, Figure 2a, CCRF-CEM cell line, mean, read-out: IC50 (nM) (Cell Prolif)

Chain of dCK-C3S-S74E (P27707 whole entry S74E, form open): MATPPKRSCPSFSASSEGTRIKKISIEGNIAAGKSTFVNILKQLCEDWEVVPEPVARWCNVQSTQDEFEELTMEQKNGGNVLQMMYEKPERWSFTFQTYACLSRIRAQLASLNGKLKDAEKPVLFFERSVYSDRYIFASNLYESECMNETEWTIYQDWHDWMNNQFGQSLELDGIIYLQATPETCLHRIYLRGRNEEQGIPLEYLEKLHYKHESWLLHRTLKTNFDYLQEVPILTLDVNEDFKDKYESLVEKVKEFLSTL

| Compound | IC50 [1, 3] | THERMAL SHIFT ASSAY +Tm (°) [2] | IC50 [1, 4] | ΔTm (º) (TSA) [2] | IC50 ([1]; Figure 2a, CCRF-CEM cell line, mean, read-out: IC50 (nM) (Cell Prolif)) |
| --- | --- | --- | --- | --- | --- |
| Cc1ccc(NC(=O)c2cnc(CN3CCN(C)CC3)nc2)cc1Nc1nc(-c2nccc(N)n2)cs1 [OR0125] | 37700 ± 4380 nM | 10.3 ± 0.0 ° | – | – | – |
| Cc1ccc(Oc2ccc(CN3CCN(C)CC3)cc2)cc1Nc1nc(-c2nccc(N)n2)cs1 [OR0143] | 2790 ± 1740 nM | 13.2 ± 0.2 ° | – | – | – |
| CN1CCN(CCc2ccc(-c3ccc4c(c3)N(c3nc(-c5nccc(N)n5)cs3)CCCC4)cc2)CC1 [OR0402] | 1760 ± 160 nM | 19.2 ± 0.3 ° | – | – | – |
| Cc1ccc(-c2ccc(CCN3CCN(C)CC3)cc2)cc1N(CCC(C)C)c1nc(-c2nc(N)cc(N)n2)cs1 [OR0605] | – | 18.7 ± 0.6 ° | 2220 nM | 18.67 º | – |
| Cc1ccc(-n2cc(CNS(C)(=O)=O)nn2)cc1N(CC(C)C)c1nc(-c2nc(N)cc(N)n2)cs1 [OR0609] | – | 13.5 ± 0.7 ° | – | 13.5 º | 3180 nM |
| Cc1ccc(-c2ccc(CCN3CCN(C)CC3)cc2)cc1N(CCN)c1nc(-c2nc(N)cc(N)n2)cs1 [OR0610] | – | 14.7 ± 0.2 ° | 16400 nM | 14.7 º | – |
| CCCN(c1nc(-c2nc(N)cc(N)n2)cs1)c1cc(-c2ccc(CN(C)C)cc2)ccc1C [OR0619] | – | 16.9 ± 0.5 ° | 614 nM | 16.88 º | – |
| CCCN(c1nc(-c2nc(N)cc(N)n2)cs1)c1cc(-c2ccc3[nH]ccc3c2)ccc1C [OR0626] | – | 16.9 ± 0.5 ° | 5750 nM | 16.85 º | – |
| Cc1ccc(-c2ccc(S(=O)(=O)N3CCN(C)CC3)cc2)cc1N(C)c1nc(-c2nc(N)cc(N)n2)cs1 [OR0631] | – | 16.8 ± 0.1 ° | 2740 nM | 16.75 º | – |

Second part, the compound after the results:

| IC50 [1, 3] | THERMAL SHIFT ASSAY +Tm (°) [2] | IC50 [1, 4] | ΔTm (º) (TSA) [2] | IC50 ([1]; Figure 2a, CCRF-CEM cell line, mean, read-out: IC50 (nM) (Cell Prolif)) | Compound |
| --- | --- | --- | --- | --- | --- |
| – | 19.7 ± 1.0 ° | 609 nM | 19.7 º | – | Cc1ccc(-c2ccc(CCN3CCN(C)CC3)cc2)cc1N(CC1CC1)c1nc(-c2nc(N)cc(N)n2)cs1 [OR0604] |
| – | 19.9 ± 0.5 ° | 552 nM | 19.85 º | – | CCCCN(c1nc(-c2nc(N)cc(N)n2)cs1)c1cc(-c2ccc(CCN3CCN(C)CC3)cc2)ccc1C [OR0606] |
| – | 19.2 ± 0.8 ° | 135 nM | 19.23 º | – | CCCN(c1nc(-c2nc(N)cc(N)n2)cs1)c1cc(-c2ccc(NC(=O)N3CCN(C)CC3)nc2)ccc1C [OR0616] |
| – | 15.7 ± 0.5 ° | 407 nM | 15.71 º | – | CCCN(c1nc(-c2nc(N)cc(N)n2)cs1)c1cc(-c2cccnc2)ccc1C [OR0620] |
| – | 16.6 ± 0.9 ° | 169 nM | 16.63 º | – | CCCN(c1nc(-c2nc(N)cc(N)n2)cs1)c1cc(-c2ccc(C(=O)N3CCOCC3)nc2)ccc1C [OR0621] |
| – | 16.5 ± 0.1 ° | 416 nM | 16.54 º | – | CCCN(c1nc(-c2nc(N)cc(N)n2)cs1)c1cc(-c2ccc(C(=O)OC)nc2)ccc1C [OR0622] |
| – | 16.8 ± 0.7 ° | 353 nM | 16.82 º | – | CCCN(c1nc(-c2nc(N)cc(N)n2)cs1)c1cc(-c2ccc(NS(=O)(=O)N3CCN(C)CC3)nc2)ccc1C [OR0625] |
| – | 20.6 ± 0.1 ° | 139 nM | 20.6 º | – | CCCN(c1nc(-c2nc(N)cc(N)n2)cs1)c1cc(-c2ccc(OCCN3CCN(C)CC3)nc2)ccc1C [OR0629] |
| – | 17.8 ± 0.1 ° | 413 nM | 17.75 º | – | CCN(c1nc(-c2nc(N)cc(N)n2)cs1)c1cc(-c2ccc(S(=O)(=O)N3CCN(C)CC3)cc2)ccc1C [OR0632] |
| – | 17.3 ± 0.1 ° | 140 nM | 17.25 º | – | CCCN(c1nc(-c2nc(N)cc(N)n2)cs1)c1cc(-c2ccc(S(=O)(=O)N3CCN(C)CC3)cc2)cc(F)c1C [OR0633] |
